# Test results reported in US20160075753A1, “MODULATION OF REGULATORY T CELL FUNCTION VIA PROTEIN KINASE C-eta” (LA JOLLA INSTITUTE FOR ALLERGY AND IMMUNOLOGY, priority 2013, published 2016).
# Tested on: interaction between CTLA-4 and PKCη
# Experiment: CTLA-4 immunoprecipitation and immunoblotting for PKCη in cotransfected JTAg cells
# Assay type: cell-based, human
# Details: JTAg cells cotransfected with WT Ctla4 and Xpress-tagged WT PKCη; PP2 10 μM for 30 min before anti-CD3 mAbs + B7-Fc stimulation for 5 min; FIG. 12
# Description: WT Ctla4 were cotransfected with Xpress-tagged WT PKCη into JTAg cells. Cells were treated with vehicle (DMSO), PP2 (10 μM) or PP3 (10 μM) for 30 min prior to stimulation with anti-CD3 mAbs+B7-Fc recombinant protein for 5 min Cell lysates were immunoprecipitated with CTLA-4 mAb and then immunoblotted with the indicated Abs.
# Simian virus 40 large T antigen-transfected human leukemic Jurkat T cells (JTAg) and MCC-specific hybridoma T cells were described previously. JTAg cells in logarithmic growth phase were transfected with plasmid DNAs by electroporation and incubated for 48 hours. Transfected cells were stimulated with OKT3 mAb and recombinant B7-Fc in the presence of cross-linking Ab for 5 min. Cell lysis in 1% digitonin lysis buffer (50 mM Tris-HCl, 50 mM NaCl, 5 mM EDTA), immunoprecipitation and Western blotting were carried out as previously described.
# To map the important motif within the cytoplasmic tail of CTLA-4 that is used in the interaction with PKCη, the membrane proximal positively charged motif (K188, 191KKR193), the proline-rich motif (P205, 206, 209), and tyrosine residues (Y201 or Y218) were mutated, and the corresponding mutants examined for their ability to associate with PKCη. […] This positively charged motif is highly conserved throughout evolution from fish to primates (FIG. 10).
smiles,measurement,value
CC(C)(C)n1nc(-c2ccc(Cl)cc2)c2c(N)ncnc21 [PP2],interaction between CTLA-4 and PKCη (co-immunoprecipitation),not affected
